PubChem BioAssay (NCI)
Several values for one entry are separate records, joined by “and”; a condition that tells them apart may be missing. Identical values can stand only once.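 These data come from cells grown in 96-well plates and exposed to compound for 48 hours at five concentrations. At the GI50, growth is halved. TGI: total growth inhibition.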

Experiments:
Assay in all cases: growth of human tumour cells (NCI), 48 h
[1] = test system: EKVX NSCLC
[2] = test system: HCT-116 colon
[3] = test system: HS 578T breast
[4] = test system: M14 melanoma
[5] = test system: MDA-MB-231 breast
[6] = test system: OVCAR-4 ovarian
[7] = test system: SF-268 CNS
[8] = test system: SNB-19 CNS
[9] = test system: T-47D breast
[10] = test system: UACC-62 melanoma

| Structure (SMILES) | GI50 [1] [µM] | TGI [1] | GI50 [2] | TGI [2] | GI50 [3] [µM] | TGI [3] [µM] | GI50 [4] [µM] | TGI [4] [µM] | GI50 [5] | TGI [5] | GI50 [6] [µM] | TGI [6] | GI50 [7] [µM] | TGI [7] | GI50 [8] [µM] | TGI [8] [µM] | GI50 [9] [µM] | TGI [9] | GI50 [10] | TGI [10] |
| --- | --- | --- | --- | --- | --- | --- | --- | --- | --- | --- | --- | --- | --- | --- | --- | --- | --- | --- | --- | --- |
| CS(=O)(=O)Nc1cccc(-c2ccc3c(NC(=O)C4CC4)n[nH]c3c2)c1 | > 24.1 | > 25 µM | 1.51 µM | > 25 µM | 2.22 | > 25 | 2.33 | > 25 | 6.35 µM | > 25 µM | 2.68 | > 25 µM | 2.78 | > 25 µM | 3.64 | > 25 | 1.2 | > 25 µM | 1.03 µM | > 25 µM |
| Cc1[nH]n(-c2ccc(S(=O)(=O)O)cc2)c(=O)c1N=Nc1ccccc1 |  | > 100 µM |  | > 100 µM |  | > 100 |  | > 100 |  | > 100 µM |  | > 100 µM |  | > 100 µM |  | > 100 |  | > 100 µM |  | > 100 µM |
| c1ccc2c(Nc3ccc(Oc4ccc(Nc5c6ccccc6nc6ccccc56)cc4)cc3)c3ccccc3nc2c1 | 2.5 | 5.17 µM and 4.63 µM | 0.155 µM and 0.0325 µM | 0.289 µM and 0.117 µM |  | 5.04 |  | 1.05 | 0.197 µM and 0.139 µM | 0.566 µM and 0.268 µM | 0.278 | 0.637 µM and 0.145 µM | 0.758 | 2.81 µM and 4.88 µM | 0.333 | 1.11 | 0.221 | 0.51 µM and 2.74 µM | 1.54 µM and 0.182 µM | 3.02 µM and 0.36 µM |
| O=c1oc2ccc(F)cc2c(=O)n1-c1ccc(Cl)cc1F | 1.61 | 8.14 µM | 0.563 µM | 2.82 µM | 0.572 | 5.77 | 0.594 | 4.55 | 0.675 µM | 6.33 µM | 0.737 | 7.68 µM | 0.879 | 11.7 µM | 0.541 | > 100 | 0.661 | 5.46 µM | 0.33 µM | 1.56 µM |
| COc1cc(C(=O)N2CCN(c3ccccc3OC)CC2)c(N)cc1OCc1ccccc1 | 35.7 | > 100 µM | 20.7 µM | 42.8 µM | 42.7 | > 100 | 39.3 | > 100 | 19.2 µM | 42.6 µM | 32.2 | > 100 µM | 43.8 | > 100 µM | 25.7 | > 100 | 26.2 | 99.5 µM | 26 µM | 77.1 µM |
| Oc1ccc2ccccc2c1C(c1ccc(Cl)cc1)c1c(O)ccc2ccccc12 |  | 7.58 µM |  | 9.36 µM |  | 8.62 |  | 15.2 |  | 9.24 µM |  | 11.2 µM |  | 7.26 µM |  | 19 |  | 12.3 µM |  | 15.1 µM |
| N#Cc1c(-c2ccc(Cl)cc2)c(-c2ccc(Cl)cc2)nn(CCOC(=O)CCC(=O)O)c1=O |  | > 100 µM |  | 4.01 µM |  | 59.7 |  | 28.5 |  | 28.6 µM |  | > 91.6 µM |  | > 72.1 µM |  | > 49.2 |  | > 100 µM |  | 47.7 µM |
| Cc1ccc(/C=C/C(=O)c2ccc(N)cc2)c(C)c1 | 19.5 | 38.8 µM | 1.91 µM | 3.76 µM | 18.2 | 80 | 2.45 | 7.52 | 2.68 µM | 6.75 µM | 2.09 | 5 µM | 1.88 | 3.7 µM | 14.4 | 27.8 | 2.05 | 4.64 µM | 2.52 µM | 7.16 µM |
| O=C(N/N=c1/ccoc2cccnc12)N1CCN(c2ncccn2)CC1 | 0.16 | 10.6 µM | < 0.01 µM | 2.25 µM | 1.07 | 24.5 | 0.0831 | 2.59 | 0.278 µM | 7.41 µM | < 0.0129 | 4.65 µM | 0.795 | 15.1 µM | 0.804 | 16.8 | < 0.01 | 7.85 µM | 0.457 µM | 5.12 µM |
| Cn1c(=O)c2[nH]c(C3CC(=O)CC(c4nc5c([nH]4)c(=O)n(C)c(=O)n5C)N3)nc2n(C)c1=O (stereo not drawn) |  | > 100 µM |  | > 100 µM |  | > 100 |  | > 100 |  | > 100 µM |  | > 100 µM |  | > 100 µM |  | > 100 |  | > 100 µM |  | > 100 µM |
| CN1C(=O)c2cc([N+](=O)[O-])ccc2[C@H]2C(=O)c3cc4c(cc3[C@H]21)OCO4 | 0.993 | > 24.5 µM | 0.0141 µM | 0.128 µM | 0.93 | > 100 | < 0.01 | 0.037 | 0.36 µM | 4.71 µM | 0.68 | > 100 µM | 0.0243 | 1.68 µM | 0.22 | > 28.2 | 0.321 | > 29.4 µM | 0.0356 µM | 0.337 µM |
| O=C1c2cccc3cccc(c23)C(=O)N1CCCCN1CCN(CCCCOc2ccc(-c3nc4ccc(N5CCOCC5)cc4[nH]3)cc2)CC1 | > 100 | > 100 µM | > 100 µM | > 100 µM | > 100 | > 100 | > 100 | > 100 | 9.16 µM | > 100 µM | > 100 | > 100 µM | > 100 | > 100 µM | > 100 | > 100 | 15.3 | > 100 µM | > 100 µM | > 100 µM |
